Earlier results in article PMC5689474 (Amino acids, 2010).

How the values were obtained:
human δ-opioid receptor = human δ-opioid receptor (Homo sapiens, UniProt P41143); details: read-out: Binding Kiδ; [3H]DPDPE; ±SEM; ref Lipkowski et al. (1999)
rat μ-opioid receptor = rat μ-opioid receptor (Rattus norvegicus, UniProt P33535); details: read-out: Binding Kiμ; [3H]DAMGO; ±SEM; ref Lipkowski et al. (1999)
[1] = target: Mouse vas deferens (δ-opioid receptors); details: read-out: Functional bioactivity MVD (IC50); ±SEM; ref Lipkowski et al. (1999)
[2] = tested on: δ- and μ-opioid receptors; details: words; ref Lipkowski et al. 1987; Horan et al. 1993
[3] = after i.c.v. and i.t. administration; ref Lipkowski et al. 1987; Horan et al. 1993
[4] = ref Horan et al. 1993; Yamazaki et al. 2001

Sequence of rat μ-opioid receptor (P33535 whole entry): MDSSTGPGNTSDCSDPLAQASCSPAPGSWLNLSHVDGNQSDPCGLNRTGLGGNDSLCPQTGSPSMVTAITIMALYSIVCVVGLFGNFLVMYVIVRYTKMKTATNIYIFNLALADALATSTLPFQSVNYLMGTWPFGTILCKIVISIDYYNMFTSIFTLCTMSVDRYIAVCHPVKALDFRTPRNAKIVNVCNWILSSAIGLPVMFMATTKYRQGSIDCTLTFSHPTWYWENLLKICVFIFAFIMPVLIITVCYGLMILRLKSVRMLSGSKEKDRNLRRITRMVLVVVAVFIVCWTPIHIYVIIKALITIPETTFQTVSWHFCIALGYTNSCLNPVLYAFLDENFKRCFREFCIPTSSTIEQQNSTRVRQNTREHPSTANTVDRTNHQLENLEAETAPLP
Sequence of human δ-opioid receptor (P41143 whole entry): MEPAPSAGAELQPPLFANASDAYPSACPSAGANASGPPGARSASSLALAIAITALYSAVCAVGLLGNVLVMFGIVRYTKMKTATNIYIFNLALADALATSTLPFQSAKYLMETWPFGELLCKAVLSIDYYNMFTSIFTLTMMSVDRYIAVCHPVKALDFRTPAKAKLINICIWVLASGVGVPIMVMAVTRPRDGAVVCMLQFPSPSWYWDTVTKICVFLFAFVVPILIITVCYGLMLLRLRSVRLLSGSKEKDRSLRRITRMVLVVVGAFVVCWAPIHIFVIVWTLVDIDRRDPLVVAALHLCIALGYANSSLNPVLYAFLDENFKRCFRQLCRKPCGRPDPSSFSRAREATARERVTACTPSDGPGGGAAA

Tyr-D-Ala-Gly-Phe-NH-NH\-Phe\-Gly\-D-Ala\-Tyr [Bph]
Ki (human δ-opioid receptor): 2.6 ± 0.4 nM
Ki (rat μ-opioid receptor): 1.4 ± 0.2 nM
IC50 [1]: 27 ± 1.5 nM
affinity for both δ- and μ-receptors [2]: highly affinity for both δ- and μ-receptors
potency compared with morphine [3]: significantly higher than morphine
physical dependence compared with morphine [4]: less physical dependence than morphine
